Assay [1] addresses T1, glucocorticoid receptor (GR) (Homo sapiens, UniProt P04150).
T1 construct: expressed in transfected cells; host or cells: CHO-K1 stably expressing EA-NLS/NRS (CHO-EA+GR-PL, 'PathHunter' cells)
T1 sequence (P04150 1-777): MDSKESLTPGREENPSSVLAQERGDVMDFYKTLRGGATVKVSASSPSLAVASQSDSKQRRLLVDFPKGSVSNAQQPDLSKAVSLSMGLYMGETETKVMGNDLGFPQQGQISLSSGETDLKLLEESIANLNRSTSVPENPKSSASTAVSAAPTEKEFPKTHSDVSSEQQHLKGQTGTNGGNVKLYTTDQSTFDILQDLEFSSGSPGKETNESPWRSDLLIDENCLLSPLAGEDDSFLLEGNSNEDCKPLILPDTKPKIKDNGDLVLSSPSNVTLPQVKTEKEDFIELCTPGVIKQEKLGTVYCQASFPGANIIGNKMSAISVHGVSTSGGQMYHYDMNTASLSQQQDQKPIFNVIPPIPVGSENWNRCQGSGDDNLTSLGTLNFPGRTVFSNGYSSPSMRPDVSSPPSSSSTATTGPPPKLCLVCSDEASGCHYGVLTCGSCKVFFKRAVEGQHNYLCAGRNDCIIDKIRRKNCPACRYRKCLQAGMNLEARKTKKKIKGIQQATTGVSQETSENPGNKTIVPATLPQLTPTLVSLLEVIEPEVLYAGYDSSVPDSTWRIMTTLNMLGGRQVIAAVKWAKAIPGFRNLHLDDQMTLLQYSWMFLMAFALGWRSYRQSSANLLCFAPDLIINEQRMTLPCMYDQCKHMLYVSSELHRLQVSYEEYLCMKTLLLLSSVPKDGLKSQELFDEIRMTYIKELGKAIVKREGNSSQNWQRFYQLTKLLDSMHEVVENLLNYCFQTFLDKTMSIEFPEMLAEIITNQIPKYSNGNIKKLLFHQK
The experiment in a line: PathHunter GR translocation EFC assay, agonist mode, chemiluminescent detection. The assay is classed as cell-based. Particulars: CHO-EA+GR-PL (PathHunter) cells, agonist 3 hours, plate read after 60 minutes, FIG. 1. How it is done: • 5 mM Potassium phosphate (dibasic) • 5 mM Potassium phosphate (monobasic) • 150 mM Sodium Chloride • 10 mM Magnesium Acetate • 2% CHAPS • pH6.9 Reagent Buffer/Substrate Formulation/Mixture Used in the Assay: • 1 part Galacton Star (ABI) • 5 parts Emerald II enhancer (ABI) • 19 parts Lysis buffer with 2% CHAPS (DX) Assay Protocol (96 Well Assay Format) • 1. 10,000 CHO-EA+GR-PL cells/well in a volume of 100 μL are plated in a Costar 96 well white, clear bottom plate and allowed to adhere overnight at 37° C./5% CO2 in an incubator. • 2. […] The reaction is incubated for 3-4 hours in a 37° C./5% CO2 incubator. • 4. To the reaction, equal aliquots from 50 mL of reagent solution are added to the wells. • 5. The plate is read on a standard multiwell plate reader that can measure luminescent activity. (e.g., Wallac Victor II or Packard Lumicount) after 30 and 60 minutes. […]
(§1) 10,000 cells/well were plated in a white Costar® 96 well plate and allowed to adhere overnight. […] To the reaction, 50 μL of cell lysis/substrate solution was added and the plate was read in a Wallace Victor 2 plate reader after 60 minutes. […] Antagonist studies were also performed using titrating amounts of geldenamycin (1-1000 nM) pre-incubated with the PathHunter cells for 1 hour prior to being treated with an agonist (at the EC80 concentration) for 3 hours and the EFC activity was measured.

The target of assay [2] is glucocorticoid receptor (GR). The experiment in a line: PathHunter GR translocation EFC assay, antagonist mode (pre-incubation before agonist). Particulars: pre-incubated 1 hour. The assay is classed as cell-based, human. As for the experimental part: • 5 mM Potassium phosphate (dibasic) • 5 mM Potassium phosphate (monobasic) • 150 mM Sodium Chloride • 10 mM Magnesium Acetate • 2% CHAPS • pH6.9 Reagent Buffer/Substrate Formulation/Mixture Used in the Assay: • 1 part Galacton Star (ABI) • 5 parts Emerald II enhancer (ABI) • 19 parts Lysis buffer with 2% CHAPS (DX) Assay Protocol (96 Well Assay Format) • 1. 10,000 CHO-EA+GR-PL cells/well in a volume of 100 μL are plated in a Costar 96 well white, clear bottom plate and allowed to adhere overnight at 37° C./5% CO2 in an incubator. • 2. […] The reaction is incubated for 3-4 hours in a 37° C./5% CO2 incubator. • 4. To the reaction, equal aliquots from 50 mL of reagent solution are added to the wells. • 5. The plate is read on a standard multiwell plate reader that can measure luminescent activity. (e.g., Wallac Victor II or Packard Lumicount) after 30 and 60 minutes.
The glucocorticoid receptor (GR) was subcloned by using a pCMV-GR-PL construct generated by Panomics, Inc. as pcr template, adding Bgl 2 and Kpn I sites at the 5′ and 3′ ends respectively. The GR sequence was based on and confirmed to match the RefSeq NM_000176 for the human GR. […] This plasmid was transiently transfected into a stable CHO-K1+EA-NLS/NRS expressing cell line. Clonal selection for cells expressing both EA-NLS/NRS and GR-PL was performed as described above except the cells were subjected to double antibiotic selection (hygromycin and Geneticin/G418).
as §1

pEC50, pIC50: −log10 of the molar value.

In general, pEC50 refers to the negative decadic logarithm of the EC50, by convention in mol/L. One may read the pIC50 as −log10 of the IC50, conventionally taken in molar units. High values mean a low IC50, low ones a high IC50.

Regarding `C[C@]12C=CC(=O)C=C1CC[C@H]1[C@@H]3C[C@@H](O)[C@](O)(C(=O)CO)[C@@]3(C)C[C@H](O)[C@@]12F` [triamcinolone], in assay [1], the pEC50 is 7.20.
For the compound `COC1=C2C[C@@H](C)C[C@H](OC)[C@H](O)[C@@H](C)/C=C(\C)[C@H](OC(N)=O)[C@@H](OC)/C=C\C=C(/C)C(=O)NC(=CC1=O)C2=O` [geldenamycin], the pIC50 is 7.62 in assay [2] (then 1 μM hydrocortisone as agonist for 3 hours); 7.65 in assay [2] (then 1 μM prednisolone as agonist for 3 hours); 7.94 in assay [2] (then dexamethasone treatment (EC80 concentration) for 3 hours, FIG. 2).
